Results published in ChEMBL document CHEMBL1201862, “PubChem BioAssay data set” (2004).
The source made the active and inactive calls.

Molecular target: T1, Heat shock factor protein 1 (Mus musculus, UniProt P38532)
T1 sequence (P38532 whole entry): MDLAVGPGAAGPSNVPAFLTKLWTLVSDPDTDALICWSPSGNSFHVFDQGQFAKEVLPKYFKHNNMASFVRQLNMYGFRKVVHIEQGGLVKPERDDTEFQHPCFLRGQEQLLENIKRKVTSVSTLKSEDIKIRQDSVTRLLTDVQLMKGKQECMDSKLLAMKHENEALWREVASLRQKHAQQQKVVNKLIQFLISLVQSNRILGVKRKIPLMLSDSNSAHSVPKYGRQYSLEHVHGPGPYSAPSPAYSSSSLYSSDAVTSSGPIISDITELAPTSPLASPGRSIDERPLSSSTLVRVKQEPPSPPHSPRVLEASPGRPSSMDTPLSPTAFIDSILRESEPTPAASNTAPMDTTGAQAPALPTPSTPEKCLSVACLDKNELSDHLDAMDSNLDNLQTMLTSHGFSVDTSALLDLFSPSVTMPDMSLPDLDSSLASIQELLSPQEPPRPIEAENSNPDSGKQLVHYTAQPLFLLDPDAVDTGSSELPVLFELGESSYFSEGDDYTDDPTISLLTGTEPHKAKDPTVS
Assay: decrease of HSF1-responsive luciferase luminescence – cell-based, NIH3T3, dose retest, confirmation (AID 2382);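 note: NIH3T3 fibroblasts with HSF1-driven luciferase reporter stressed by proteasome inhibitor MG132; luminescence from HSF1-driven luciferase expression after 8 hours of MG132 stress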
Assay type: functional
Conditions: not given

EC50 | Compound
> 195 µM (not active) | O=C(Nc1ccc(Cl)cc1)C1CCCN1C(=O)NCc1ccccc1 (stereo not given)
> 195 µM (not active) | Cc1cc(NC(=O)Cn2ccc([N+](=O)[O-])n2)no1
> 195 µM (not active) | Cc1cc(=O)oc2c(C)c(OC(C)C(=O)NCCCN3CCOCC3)ccc12 (stereo not given)
> 195 µM (not active) | CC(C)c1ccc2oc(=O)cc(CN3CCCCC3)c2c1
> 195 µM (not active) | CCc1nnc(NC(=O)CSc2nc(C)c3c(c2C#N)CCCC3)s1
> 195 µM (not active) | Fc1ccc(-n2cc(CNCCc3ccccn3)c(-c3ccccc3Cl)n2)cc1
> 195 µM (not active) | CCC(=O)N(CCC(c1ccco1)c1ccccc1OC)Cc1cccs1 (stereo not given)
> 195 µM (not active) | COc1ccc(-c2nn(-c3ccccc3)cc2/C=C(\CC(=O)O)c2nc3ccccc3s2)cc1OC
0.847 µM (active) | O=C(CC(Nc1ccccc1Cl)C(=O)OCC(=O)c1cccs1)c1ccccc1 (stereo not given)
< 0.16 µM (active) | O=C(Nc1ccc(F)cc1F)c1cc2nc3c(c(C(F)(F)F)n2n1)CCCC3
> 195 µM (not active) | O=C(CCN1C(=O)/C(=C/c2ccc(F)cc2)SC1=S)NCCCn1ccnc1
> 195 µM (not active) | CCN(Cc1ccccc1)S(=O)(=O)c1ccc(F)cc1
> 195 µM (not active) | O=C(CN1CCN(Cc2ccccc2)CC1)N/N=C\C=C/c1ccco1
> 195 µM (not active) | Cc1oc(/C=N/NC(=O)CC2(C)OCCO2)cc1Br
> 195 µM (not active) | Cc1ccc(-c2n[nH]cc2/C=N/n2c(C)nc3ccccc3c2=O)cc1
> 195 µM (not active) | C/C(Cc1ccccc1)=N\NC(=O)CNC(=O)Cc1ccc(Cl)cc1

Molecular target: Cytochrome P450 2C19 (Homo sapiens, UniProt P33261)
Assay: Cytochrome panel assay with activity outcomes. Panel member name: p450-cyp2c19 Compounds with AC50 equal or less than 10 uM are considered active
Assay type: functional
Conditions: not given

Sequence of Cytochrome P450 2C19 (P33261 whole entry): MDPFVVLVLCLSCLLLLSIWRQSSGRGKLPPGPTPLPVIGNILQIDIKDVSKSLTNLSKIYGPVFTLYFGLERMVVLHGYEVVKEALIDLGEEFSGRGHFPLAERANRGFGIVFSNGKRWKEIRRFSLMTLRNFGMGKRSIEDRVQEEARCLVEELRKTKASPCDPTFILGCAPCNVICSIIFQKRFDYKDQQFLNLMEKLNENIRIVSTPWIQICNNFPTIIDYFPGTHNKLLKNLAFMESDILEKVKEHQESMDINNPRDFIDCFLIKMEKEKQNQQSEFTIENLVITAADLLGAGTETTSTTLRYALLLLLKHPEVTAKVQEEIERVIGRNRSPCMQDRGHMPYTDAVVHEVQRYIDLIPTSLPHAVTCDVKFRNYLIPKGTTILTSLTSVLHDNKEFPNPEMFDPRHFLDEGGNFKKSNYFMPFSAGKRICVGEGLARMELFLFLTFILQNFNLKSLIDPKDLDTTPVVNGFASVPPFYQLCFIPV

AC50 | Compound
inconclusive | CC(C)(C)N(NC(=O)c1ccccc1)C(=O)c1cccc(C(=O)N(NC(=O)c2ccccc2)C(C)(C)C)c1
inconclusive | CN1CCN(c2ncncc2-c2ccoc2)CC1

Same assay, conditions: read-out: AC50

AC50 | Compound
39.8 µM (inconclusive) | c1cncc(CNc2nc(-c3cccnc3)nc3ccccc23)c1
5.01 µM (inconclusive) | COc1ccc(/C=N\c2c(O)ccc3ccccc23)cc1OC
39.8 µM (inconclusive) | COc1ccc(-c2nc3cnc(N4CCNCC4)nc3n(CCc3ccccc3)c2=O)cc1
17.8 µM (inconclusive) | COc1cc(/C=C/C(=O)Nc2ccccc2C(F)(F)F)cc(OC)c1OC
39.8 µM (inconclusive) | CCCc1nc2sc3ccccc3c(=O)c2c(=O)n1CCOC
22.4 µM (inconclusive) | O=C(Cn1nnc2ccccc21)N1CCCCC1
22.4 µM (inconclusive) | Cc1ccc(-c2nc3ccccc3s2)cc1NC(=S)NC(=O)c1ccccc1
1 µM (inconclusive) | Cc1ccc2[nH]c(-c3ccc(NC(=O)Cc4cccs4)cc3)nc2c1

Molecular target: Cytochrome P450 2D6 (Homo sapiens, UniProt P10635);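 note: CYP2D6 member of a cytochrome P450 panel assay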
Conditions: not given

Sequence of Cytochrome P450 2D6 (P10635 whole entry): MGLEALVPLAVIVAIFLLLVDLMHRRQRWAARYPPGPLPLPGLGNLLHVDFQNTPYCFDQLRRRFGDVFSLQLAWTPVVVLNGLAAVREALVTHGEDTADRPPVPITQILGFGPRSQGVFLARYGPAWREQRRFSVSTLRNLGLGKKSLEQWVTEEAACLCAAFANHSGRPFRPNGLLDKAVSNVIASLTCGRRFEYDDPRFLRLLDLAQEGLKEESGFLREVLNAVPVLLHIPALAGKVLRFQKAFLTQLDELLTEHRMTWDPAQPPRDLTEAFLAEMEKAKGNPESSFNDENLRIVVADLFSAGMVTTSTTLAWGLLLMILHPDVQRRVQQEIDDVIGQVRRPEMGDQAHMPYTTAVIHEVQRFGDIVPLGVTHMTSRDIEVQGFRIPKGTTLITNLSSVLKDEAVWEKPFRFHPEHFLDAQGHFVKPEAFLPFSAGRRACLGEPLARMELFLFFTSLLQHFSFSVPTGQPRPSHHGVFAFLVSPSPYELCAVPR

AC50 | Compound
20 µM (inconclusive) | c1cncc(CNc2nc(-c3cccnc3)nc3ccccc23)c1
39.8 µM (inconclusive) | CCNc1ncc2nc(C)c(=O)n(C)c2n1
15.8 µM (inconclusive) | COc1ccc(-c2nc3cnc(N4CCNCC4)nc3n(CCc3ccccc3)c2=O)cc1
0.794 µM (inconclusive) | COc1ccc(O[C@H]2C=C[C@@H](c3ccccc3)O[C@H]2COC(=O)CC/C(C)=N/OCC[C@@H]2C=C[C@H](OC(C)=O)[C@H](COC(C)=O)O2)cc1
15.8 µM (inconclusive) | CCc1ccc(N/C(SCc2ccccc2C)=C(/C#N)C(=O)NCc2ccco2)cc1
39.8 µM (inconclusive) | COC(=O)N1CCC2(CCN(C(=O)Nc3ccc(OC)cc3)CC2)CC1
15.8 µM (inconclusive) | CC(C)OC(=O)c1nnn(-c2nonc2N)c1CSc1ccccn1
3.16 µM (inconclusive) | CCN(CC)C[C@@H](O)c1ccc2ccc3ccccc3c2c1
20 µM (inconclusive) | COC(=O)[C@@]1(Cc2ccc(F)cc2)[C@H]2c3cc(C(=O)N(C)C)n(Cc4ccc(C(F)(F)F)nc4)c3C[C@H]2CN1C(=O)c1ccccc1
39.8 µM (inconclusive) | c1ccc(CNc2ncncc2-c2cccnc2)cc1
31.6 µM (inconclusive) | O=C(CSc1nnc(COc2ccccc2)n1-c1ccccc1)c1ccccc1
31.6 µM (inconclusive) | CN1CCN(c2ncncc2-c2ccoc2)CC1
10 µM (inconclusive) | O=C(c1csnn1)N1CCC2(CC1)CN(c1cccc(-c3ccccc3)c1)C2
39.8 µM (inconclusive) | COC(=O)[C@@]1(Cc2ccc(F)cc2)[C@H]2c3cc(C(=O)N(C)C)n(Cc4ccc(C)o4)c3C[C@H]2CN1C(=O)c1ccccc1
15.8 µM (inconclusive) | C[C@@H](C(=O)NCc1nc2ccccc2[nH]1)[C@@H]1C[C@@]1(C)[C@@H](NC(=O)OCc1ccccc1)c1ccccc1
10 µM (inconclusive) | [H]/N=C(\N/C(=N/[H])Nc1ccc(Cl)cc1)NC(C)C [PROGUANIL]

Compound | AC50
c1ccc(CN2CCCC3(CCNCC3)C2)cc1 | 12.6 µM (inconclusive)

Molecular target: T2, Cytochrome P450 1A2 (Homo sapiens, UniProt P05177);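 note: PubChem cytochrome P450 panel assay, CYP1A2 panel member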
T2 sequence (P05177 whole entry): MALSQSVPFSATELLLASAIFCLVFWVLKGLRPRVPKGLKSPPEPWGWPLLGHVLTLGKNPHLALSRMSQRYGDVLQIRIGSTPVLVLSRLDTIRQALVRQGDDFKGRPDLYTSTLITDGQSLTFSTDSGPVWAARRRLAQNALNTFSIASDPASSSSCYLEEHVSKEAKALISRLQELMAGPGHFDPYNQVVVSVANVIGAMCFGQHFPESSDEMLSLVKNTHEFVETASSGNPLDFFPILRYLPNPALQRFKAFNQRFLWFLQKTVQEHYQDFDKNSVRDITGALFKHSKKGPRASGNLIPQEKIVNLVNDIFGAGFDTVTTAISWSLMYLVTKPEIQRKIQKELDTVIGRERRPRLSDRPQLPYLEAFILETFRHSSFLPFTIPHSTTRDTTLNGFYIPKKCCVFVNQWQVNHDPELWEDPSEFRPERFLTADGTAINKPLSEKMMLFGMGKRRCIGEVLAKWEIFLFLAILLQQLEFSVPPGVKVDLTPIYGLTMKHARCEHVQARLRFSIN
Conditions: not given

AC50 | Compound
0.316 µM (active) | c1cncc(CNc2nc(-c3cccnc3)nc3ccccc23)c1
15.8 µM (inconclusive) | COc1ccc(-c2nc3cnc(N4CCNCC4)nc3n(CCc3ccccc3)c2=O)cc1
28.2 µM (inconclusive) | COc1cc(/C=C/C(=O)Nc2ccccc2C(F)(F)F)cc(OC)c1OC
7.08 µM (inconclusive) | CCc1ccc(N/C(SCc2ccccc2C)=C(/C#N)C(=O)NCc2ccco2)cc1
25.1 µM (inconclusive) | COC(=O)N1CCC2(CCN(C(=O)Nc3ccc(OC)cc3)CC2)CC1
15.8 µM (inconclusive) | Cc1ccc(-c2nc3ccccc3s2)cc1NC(=S)NC(=O)c1ccccc1
28.2 µM (inconclusive) | O=C(CSc1nnc(COc2ccccc2)n1-c1ccccc1)c1ccccc1
5.01 µM (inconclusive) | COc1cccc(Nc2ncc3nc(CCc4ccccc4)c(=O)n(C4CC4)c3n2)c1
31.6 µM (inconclusive) | CN1CCN(c2ncncc2-c2ccoc2)CC1
12.6 µM (inconclusive) | C[C@@H](C(=O)NCc1nc2ccccc2[nH]1)[C@@H]1C[C@@]1(C)[C@@H](NC(=O)OCc1ccccc1)c1ccccc1
15.8 µM (inconclusive) | CC(C)(C)NC(=O)C(=O)N/N=C/c1ccc(Br)cc1

Compound | AC50
O=C(O)/C=C\C(=O)Nc1ccc2c(c1)-c1ccccc1C2 | 1 µM (inconclusive)

Molecular target: Cytochrome P450 3A4 (Homo sapiens, UniProt P08684);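 note: CYP3A4 tested as one member of a cytochrome P450 panel screen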
Conditions: not given

Sequence of Cytochrome P450 3A4 (P08684 whole entry): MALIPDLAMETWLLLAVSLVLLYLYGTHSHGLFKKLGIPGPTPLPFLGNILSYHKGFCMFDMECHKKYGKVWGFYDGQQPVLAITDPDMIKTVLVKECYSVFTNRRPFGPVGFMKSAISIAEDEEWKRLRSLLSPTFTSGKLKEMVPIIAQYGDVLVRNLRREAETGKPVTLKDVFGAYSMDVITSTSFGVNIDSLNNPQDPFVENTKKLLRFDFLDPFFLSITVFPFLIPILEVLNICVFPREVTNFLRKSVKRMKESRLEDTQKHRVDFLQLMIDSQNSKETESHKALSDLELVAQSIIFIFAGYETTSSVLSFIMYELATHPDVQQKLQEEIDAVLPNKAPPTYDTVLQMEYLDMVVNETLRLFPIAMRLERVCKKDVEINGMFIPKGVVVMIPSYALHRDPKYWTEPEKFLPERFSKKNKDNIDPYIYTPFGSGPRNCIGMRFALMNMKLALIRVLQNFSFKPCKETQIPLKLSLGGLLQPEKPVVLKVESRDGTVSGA

AC50 | Compound
6.31 µM (inconclusive) | COc1ccc(/C=N\c2c(O)ccc3ccccc23)cc1OC
14.1 µM (inconclusive) | O=C(CC1CCCCC1)N1CCC(c2nc(-c3ccc(S(=O)(=O)N4CCCC4)cc3)no2)CC1
20 µM (inconclusive) | COc1ccc(-c2nc3cnc(N4CCNCC4)nc3n(CCc3ccccc3)c2=O)cc1
15.8 µM (inconclusive) | C[C@@H](C(=O)O)[C@@H]1C[C@@]1(C)[C@@H](NC(=O)OCc1ccccc1)c1ccccc1
12.6 µM (inconclusive) | C[C@@H](C(=O)O)[C@H]1C[C@]1(C)[C@H](NC(=O)OCc1ccccc1)c1ccccc1
14.1 µM (inconclusive) | COc1cc(/C=C/C(=O)Nc2ccccc2C(F)(F)F)cc(OC)c1OC
25.1 µM (inconclusive) | O=C(NNS(=O)(=O)c1ccc(Cl)cc1)c1cnn(-c2ccccc2)c1-n1cccc1
25.1 µM (inconclusive) | Cn1cccc1C(=O)N1CCC[C@@]2(CCN(C(=O)Nc3cccc(C#N)c3)C2)C1
35.5 µM (inconclusive) | CCCc1nc2sc3ccccc3c(=O)c2c(=O)n1CCOC
31.6 µM (inconclusive) | COc1cccc(-c2ccc3ncnc(NC4CCNCC4)c3c2)c1
14.1 µM (inconclusive) | Cc1ccc(-c2nc3ccccc3s2)cc1NC(=S)NC(=O)c1ccccc1
3.98 µM (inconclusive) | CC(C)(C)N(NC(=O)c1ccccc1)C(=O)c1cccc(C(=O)N(NC(=O)c2ccccc2)C(C)(C)C)c1
10 µM (inconclusive) | COc1cccc(Nc2ncc3nc(CCc4ccccc4)c(=O)n(C4CC4)c3n2)c1
39.8 µM (inconclusive) | O=C(c1csnn1)N1CCC2(CC1)CN(c1cccc(-c3ccccc3)c1)C2
3.98 µM (inconclusive) | Cn1cc(/C=N/n2cnc3scc(-c4ccccc4)c3c2=O)c2ccccc21

Compound | AC50
O=C(O)/C=C\C(=O)Nc1ccc2c(c1)-c1ccccc1C2 | 3.98 µM (inconclusive)

Molecular target: Cytochrome P450 2C9 (Homo sapiens, UniProt P11712)
Conditions: not given

Sequence of Cytochrome P450 2C9 (P11712 whole entry): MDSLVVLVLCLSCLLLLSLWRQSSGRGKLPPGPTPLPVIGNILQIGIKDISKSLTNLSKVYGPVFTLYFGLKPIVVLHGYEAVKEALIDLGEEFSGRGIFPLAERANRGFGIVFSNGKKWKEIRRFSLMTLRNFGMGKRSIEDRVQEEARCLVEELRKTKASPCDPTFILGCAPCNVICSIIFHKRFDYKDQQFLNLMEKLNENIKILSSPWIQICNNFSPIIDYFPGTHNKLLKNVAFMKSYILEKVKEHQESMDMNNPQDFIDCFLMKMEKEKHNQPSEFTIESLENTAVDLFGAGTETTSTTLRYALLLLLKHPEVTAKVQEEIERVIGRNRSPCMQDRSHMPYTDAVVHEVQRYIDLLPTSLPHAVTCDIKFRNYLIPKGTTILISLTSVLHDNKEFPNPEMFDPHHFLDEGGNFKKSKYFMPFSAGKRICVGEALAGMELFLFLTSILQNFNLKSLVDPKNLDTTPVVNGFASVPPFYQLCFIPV

AC50 | Compound
3.16 µM (inconclusive) | O=C(C[C@@H](c1ccccc1)N1CCCCC1)c1ccccc1
0.00562 µM (inconclusive) | O=C(Cn1nnc2ccccc21)N1CCCCC1
8.91 µM (inconclusive) | CCCCN(C(=O)NC(=O)Nc1ccccc1OCC)S(C)(=O)=O
31.6 µM (inconclusive) | O=C(c1ccncc1)N1CCC2(CC1)CN(c1ccncc1)C2
6.31 µM (inconclusive) | CC(=O)OC[C@@H]1O[C@H](C/C=N\OC[C@@H](C)[C@H](OCc2ccccc2)C(C)C)C=C[C@@H]1OC(C)=O
0.708 µM (inconclusive) | Cc1ccc2[nH]c(-c3ccc(NC(=O)Cc4cccs4)cc3)nc2c1
1 µM (inconclusive) | COc1ccc(CNc2nc(-c3c(C)noc3C)nc3ccccc23)c(OC)c1
35.5 µM (inconclusive) | CC(NC(=O)Cn1cnc([N+](=O)[O-])n1)c1ccccc1 (stereo not given)
15.8 µM (inconclusive) | CC(C)(C)NC(=O)C(=O)N/N=C/c1ccc(Br)cc1
10 µM (inconclusive) | Clc1ccc(/C=N/c2c(-c3ccc(Cl)cc3)nc3n2CCS3)cc1
15.8 µM (inconclusive) | CN(C)CCCn1cc(C2=C(c3c[nH]c4ccccc34)C(=O)NC2=O)c2ccccc21 [GF-109203]
15.8 µM (inconclusive) | CC(=O)NCCc1c(Cc2ccccc2)[nH]c2ccccc12 [LUZINDOLE]

Compound | AC50
CC(C)C[C@H]1C(=O)N2CCC[C@@H]2[C@]2(O)O[C@](NC(=O)[C@@H]3C=C4c5cccc6[nH]c(Br)c(c56)C[C@H]4N(C)C3)(C(C)C)C(=O)N12 | 10 µM (inconclusive)
O=C(N/N=C(\c1ccccc1)c1cccnc1)C(O)(c1ccccc1)c1ccccc1 | 0.794 µM (inconclusive)
